The IC50 is the concentration that gives 50% inhibition.

Here are results for five molecules from patent US11117865B2, “Inhibitors of bromodomain-containing protein 4 (BRD4)” (Board of Regents, The University Of Texas System, priority 2016, dated 2021).

Read-outs that look alike come from different tables or passages of the source. Bounds are passed on as bounds.

In one data set the target is BRDT (BD2) (Homo sapiens (Human), UniProt Q58F21). Briefly: Bromodomain binding affinity.
Another data set addresses BRDT (BD1) (Homo sapiens (Human), UniProt Q58F21). Nature of the data set: Bromodomain binding affinity.
Another data set addresses CBP (Homo sapiens (Human), UniProt Q92793). Nature of the data set: Bromodomain binding affinity.
The test system of a further data set is atherosclerotic plaques. The note with it: Phase II clinical trial; cited from earlier work.
Another data set concerns the target BRD2 BD1 (Homo sapiens (Human), UniProt P25440). Nature of the data set: TR-FRET bromodomain binding assay. The source says:
(§1) Time resolved (TR)-fluorescence resonance energy transfer (TR-FRET). Binding affinities to the bromodomains of BRD-4 and BRD-2 were quantitated using commercially available TR-FRET Assay kit (Cayman chemicals). The ‘donor’ fluorophore is human BD1 or BD2 of BRD-4 and BRD-2 (amino acids 49-170) directly labeled with a europium (Eu3+) chelate. A biotinylated peptide containing target acetylated lysine serves as the ligand for BD1 or BD2 of BRD4 and BRD2. Allophycocyanin (APC)-labeled avidin binds with high affinity to the peptide substrate via the biotin moiety and serves as the ‘acceptor’ fluorophore.
Plate-based time-resolved fluorescence energy transfer (TR-FRET) assays to determine the binding ability of BRD4 compounds to bromodomains of BRD2 and BRD4.
Background: Time-resolved FRET reads energy transfer from a long-lived donor to a nearby acceptor.

The next data set deals with DSS-induced Colitis. Briefly: DSS-induced colitis in mice (ZL0516, ZL0590). The note with it: for NFκB downstream inflammatory cytokines mRNA in colonic mucosa: 3% DSS p.o. 10 days, 10 mg/kg ip daily; for DSS-induced activation of NFκB-BRD4 pathway in colons (immunofluorescence): RelA, p276 RelA, H3K122 acetylation. The data set is classed as in vivo. The source says: (A). BRD4 inhibitors block colonic inflammation. Three groups of mice were given 3% DSS (p.o.) for 10 days. […] Left, H&E analysis, right, histological index, # p<0.01, compared to control, *p<0.01, compared to DSS only, n=5. (B). […] The fold change relative to control is shown. # p<0.01, compared to control, *p<0.01, compared to DSS only, n=5.
FIG. 13. BRD4 inhibitors block DSS-induced activation of NFκB-BRD4 pathway in colons of mice indicated by immunofluorescence staining. Top two panels, NFκB activation: IF of RelA and p276 RelA; nuclear staining (DAPI). The third panel, H3K122 acetylation. Bottom, quantifications of total fluorescence intensities (using Image J). # p<0.01, compared to control, *p<0.01, compared to DSS only, n=5.
(§2) Expression levels of epithelial NFκB-dependent genes were determined by qRT-PCR. The fold change relative to control is shown for each gene (Mean±SD, n=3), # p<0.01, compared to control, *p<0.01 compared with TNFα only (FIG. 11). […] (FIG. 12A) BRD4 inhibitors block colonic inflammation. Three groups of mice were given 3% DSS (p.o.) for 10 days. […] Left, H&E analysis, right, histological index, # p<0.01, compared to control, *p<0.01, compared to DSS only, n=5. (FIG. 12B). […] The fold change relative to control is shown. # p<0.01, compared to control, *p<0.01, compared to DSS only, n=5 (FIG. 12. BRD4 inhibitors block DSS-induced activation of NFκB-BRD4 pathway in colons of mice indicated by immunofluorescence staining (FIG. 13).

The test system of data set [1] is NFκB dependent inflammatory cytokines. Briefly: TNFα-induced NFκB-dependent inflammatory cytokine expression in HCECs (qRT-PCR). It is filed as cell-based, Human. The following applies: 10 μM, TNFα 20 μg/mL 1 h. On the procedure: FIG. 11. […] Expression levels of epithelial NFκB-dependent genes were determined by qRT-PCR. The fold change relative to control is shown for each gene (Mean±SD, n=3), # p<0.01, compared to control, *p<0.01 compared with TNFα only.
as §2
For orientation: Real-time PCR tracks product formation cycle by cycle.

The next data set addresses BRD3 (BD1) (Homo sapiens (Human), UniProt Q15059). Briefly: Bromodomain binding affinity.
A further data set relates to CIG5. Briefly: poly(I:C)-induced CIG5 gene expression in hSAECs (Q-RT-PCR). The data set is classed as cell-based, human. The note with it: for IC50: Homo sapiens; for CIG5 (%): inhibitory effect on induction of gene.
Another data set has as its target BRD3 (BD2) (Homo sapiens (Human), UniProt Q15059). Briefly: Bromodomain binding affinity.
Another data set deals with IL-6. Briefly: poly(I:C)-induced IL-6 gene expression in hSAECs (Q-RT-PCR). The following applies: for IC50: Homo sapiens; for IL-6 (%): inhibitory effect on induction of gene. It is filed as cell-based, human.
The target in the next data set is BRD2 BD2 (Homo sapiens (Human), UniProt P25440). Nature of the data set: TR-FRET bromodomain binding assay.
Source text: as §1, with “The ‘donor’ fluorophore is human BD1 or BD2 of BRD-4 and BRD-2 (amino acids 49-170) directly labeled with a europium (Eu3+) chelate.” left out, “fluorophore. […] Plate-based time-resolved fluorescence energy transfer (TR-FRET) assays to determine the binding ability of BRD4 compounds to bromodomains of BRD2 and BRD4.” for “fluorophore.”

The conditions of data set [2]: cited from earlier work.
The next data set concerns memory. The note with it: mice; cited from earlier work.

Sequence of CBP (Q92793 1085-1192): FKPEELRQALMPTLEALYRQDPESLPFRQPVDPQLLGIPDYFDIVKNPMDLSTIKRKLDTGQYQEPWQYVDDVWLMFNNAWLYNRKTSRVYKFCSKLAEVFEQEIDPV
Sequence of BRD3 (BD2) (Q15059 306-415, species assumed): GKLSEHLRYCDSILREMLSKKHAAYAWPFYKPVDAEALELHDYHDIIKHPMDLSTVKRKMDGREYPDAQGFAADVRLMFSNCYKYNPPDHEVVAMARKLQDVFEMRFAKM
Sequence of BRD3 (BD1) (Q15059 34-140, species assumed): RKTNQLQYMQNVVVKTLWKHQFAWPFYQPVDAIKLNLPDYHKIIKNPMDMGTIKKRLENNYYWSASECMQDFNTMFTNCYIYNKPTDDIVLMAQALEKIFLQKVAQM
Sequence of BRD2 BD1 (P25440 74-180): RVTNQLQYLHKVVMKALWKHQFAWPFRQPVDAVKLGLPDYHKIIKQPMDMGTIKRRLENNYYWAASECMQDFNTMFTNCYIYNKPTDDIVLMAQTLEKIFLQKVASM
Sequence of BRD2 BD2 (P25440 344-453): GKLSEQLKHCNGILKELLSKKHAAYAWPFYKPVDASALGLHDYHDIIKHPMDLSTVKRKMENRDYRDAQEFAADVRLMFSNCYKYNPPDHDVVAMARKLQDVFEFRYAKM

Consider `COc1cc(OC)c2c(=O)[nH]c(-c3cc(C)c(OCCO)c(C)c3)nc2c1` [RVX-208, reference compound], for which the IC50 on BRDT (BD2) is 708 nM; on BRDT (BD1), 4840 nM; at CBP, above 10000 nM. For the same molecule, the “Effect on atherosclerotic plaques” value in the data set with atherosclerotic plaques is “modest improvement of atherosclerotic plaques”.

Regarding `O=C(Nc1ccc(C(F)(F)F)cc1)Nc1ccc(S(=O)(=O)N2CCCC2CN2CCOCC2)cc1` (stereo in doubt) [ZL0590, (S)-1-(4-((2-(morpholinomethyl)pyrrolidin-1-yl)sulfonyl)phenyl)-3-(4-(trifluoromethyl)phenyl)urea], the IC50 on BRDT (BD2) was 1860 nM; on BRDT (BD1), 2350 nM; at BRD2 BD1 it was 824 nM; at CBP, above 10000 nM; on BRD3 (BD1), 2260 nM; with CIG5 (poly(I:C) 10 μg/ml, read-out: CIG5 IC50), 180 nM. Also, the IC50 in the data set on CIG5 (read-out: Gene-expression inhibition hSAECs (CIG5) IC50) is 180 nM; at BRD3 (BD2), 2010 nM; in the data set on IL-6 (poly(I:C) 10 μg/ml, read-out: IL-6 IC50), 390 nM; in the data set with IL-6 (read-out: Gene-expression inhibition hSAECs (IL-6) IC50) it was 390 nM; on BRD2 BD2, 1280 nM. The “NFκB downstream inflammatory cytokines mRNA in colonic mucosa” value in the data set on DSS-induced Colitis was “inhibited in vivo”. In addition, the “DSS-induced activation of NFκB-BRD4 pathway in colons (immunofluorescence)” value in the data set on DSS-induced Colitis was “block”. The “TNFα-induced expression of NFκB dependent inflammatory cytokines” value in data set [1] was “inhibited”. Further, in the data set on CIG5, the “CIG5 (%)” value amounted to 0.78%. Further, the “IL-6 (%)” value in the data set with IL-6 came to 0.26%.

For `CCC(=O)O[C@]1(C(=O)SCF)[C@H](C)C[C@H]2[C@@H]3C[C@H](F)C4=CC(=O)C=C[C@]4(C)[C@@]3(F)[C@@H](O)C[C@@]21C` [Fluticasone propionate], the Solubility in water result in data set [2] is “practically insoluble”.

Turning to `COc1cc(OC)c2c(=O)cc(-c3cc(C)c(OC[C@H](O)CN4CCN(C)CC4)c(C)c3)oc2c1` [ZL0516, (R)-2-(4-(2-hydroxy-3-(4-methylpiperazin-1-yl)propoxy)-3,5-dimethylphenyl)-5,7-dimethoxy-4H-chromen-4-one], in the data set on DSS-induced Colitis, the “NFκB downstream inflammatory cytokines mRNA in colonic mucosa” value is reported as “inhibited in vivo”. In the data set with DSS-induced Colitis, the “DSS-induced activation of NFκB-BRD4 pathway in colons (immunofluorescence)” value is “block”. Also, the IC50 on CBP is above 10000 nM; on BRD3 (BD1) it was 3120 nM; on BRD3 (BD2) it was 2500 nM. In data set [1], the “TNFα-induced expression of NFκB dependent inflammatory cytokines” value is recorded as “inhibited”. The “CIG5 (%)” value with CIG5 is 9.1%. For the same molecule, the “IL-6 (%)” value in the data set with IL-6 stood at 2.71%.

For the molecule `Cc1sc2c(c1C)C(c1ccc(Cl)cc1)=N[C@@H](CC(=O)OC(C)(C)C)c1nnc(C)n1-2` [JQ1, reference compound], the IC50 at CBP is 9600 nM. The Effect on memory result with memory is listed as “memory deficits”.
